Read-outs that look alike come from different tables or passages of the source.
System: SARS-CoV-2 strain USA-WA1/2020
Test: microbe, parasite or virus in culture
Type: cell-based
[1] = Severe acute respiratory syndrome coronavirus 2, HeLa-ACE2, 24 h, HeLa-ACE2 cells, SARS-CoV-2 infection, 24 h; class symbols; read-out: EC50, uM (Hela)
[2] = Severe acute respiratory syndrome coronavirus 2, HeLa-ACE2, 24 h, HeLa-ACE2 cells, SARS-CoV-2 infection, 24 h; cells given as a bound; read-out: EC50, uM (Hela)

SMILES	EC50 [1]	further results
CC(C)C[C@H](NC(=O)C(=O)Nc1cccnc1C(F)(F)F)C(=O)N[C@@H](C[C@@H]1CCNC1=O)C(=O)COc1c(F)c(F)cc(F)c1F [Compound 48, N1-((S)-4-methyl-1-oxo-1-(((S)-3-oxo-1-((S)-2-oxopyrrolidin-3-yl)-4-(2,3,5,6-tetrafluorophenoxy)butan-2-yl)amino)pentan-2-yl)-N2-(2-(trifluoromethyl)-pyridin-3-yl)oxalamide]	< 0.05 µM	
CC(C)C[C@H](NC(=O)C(=O)Nc1ccccc1)C(=O)N[C@@H](C[C@@H]1CCNC1=O)C(O)COc1c(F)c(F)cc(F)c1F (stereo partly drawn) [Compound 49, N1-((2S)-1-(((2S)-3-hydroxy-1-((S)-2-oxopyrrolidin-3-yl)-4-(2,3,5,6-tetrafluorophenoxy)butan-2-yl)amino)-4-methyl-1-oxopentan-2-yl)-N2-phenyloxalamide]		EC50 [2]: > 1 µM
CC(C)C[C@H](NC(=O)c1cc2cc(F)ccc2[nH]1)C(=O)N[C@@H](C[C@@H]1CCNC1=O)C(=O)COP(=O)(c1ccccc1)c1ccccc1 [Compound 50, (S)-3-((S)-2-(5-fluoro-1H-indole-2-carboxamido)-4-methylpentanamido)-2-oxo-4-((S)-2-oxopyrrolidin-3-yl)butyl diphenylphosphinate]		EC50 (Severe acute respiratory syndrome coronavirus 2, HeLa-ACE2, 24 h; read-out: EC50, uM (Hela)): 0.2 to 0.5 µM
CC(C)C[C@H](NC(=O)C(=O)Nc1cccc2ccccc12)C(=O)N[C@@H](C[C@@H]1CCNC1=O)C(=O)COc1c(F)c(F)cc(F)c1F [Compound 51, N1-((S)-4-methyl-1-oxo-1-(((S)-3-oxo-1-((S)-2-oxopyrrolidin-3-yl)-4-(2,3,5,6-tetrafluorophenoxy)butan-2-yl)amino)pentan-2-yl)-N2-(naphthalen-1-yl)oxalamide]	< 0.05 µM	
CC(C)C[C@H](NC(=O)C(=O)Nc1cccc(Cl)c1)C(=O)N[C@@H](C[C@@H]1CCNC1=O)C(=O)COc1c(F)c(F)cc(F)c1F [Compound 52, N1-(3-chlorophenyl)-N2-((S)-4-methyl-1-oxo-1-(((S)-3-oxo-1-((S)-2-oxopyrrolidin-3-yl)-4-(2,3,5,6-tetrafluorophenoxy)butan-2-yl)amino)pentan-2-yl)oxalamide]	0.05 to 0.2 µM	
CC(C)C[C@H](NC(=O)C(=O)Nc1ccc(F)c(F)c1)C(=O)N[C@@H](C[C@@H]1CCNC1=O)C(=O)COc1c(F)c(F)cc(F)c1F [Compound 53, N1-(3,4-difluorophenyl)-N2-((S)-4-methyl-1-oxo-1-(((S)-3-oxo-1-((S)-2-oxopyrrolidin-3-yl)-4-(2,3,5,6-tetrafluorophenoxy)butan-2-yl)amino)pentan-2-yl)oxalamide]	0.05 to 0.2 µM	
CC(C)C[C@H](CC(=O)NCc1ccccc1F)C(=O)N[C@@H](C[C@@H]1CCNC1=O)C(=O)COc1c(F)c(F)cc(F)c1F [Compound 54, (R)-N4-(2-fluorobenzyl)-2-isobutyl-N1-((S)-3-oxo-1-((S)-2-oxopyrrolidin-3-yl)-4-(2,3,5,6-tetrafluorophenoxy)butan-2-yl)succinamide]		EC50 (Severe acute respiratory syndrome coronavirus 2, HeLa-ACE2, 24 h, read-out: EC50, uM (Hela)): > 1 µM
CC(C)C[C@H](CC(=O)NCc1c(F)cccc1F)C(=O)N[C@@H](C[C@@H]1CCNC1=O)C(=O)COc1c(F)c(F)cc(F)c1F [Compound 55, (R)-N4-(2,6-difluorobenzyl)-2-isobutyl-N1-((S)-3-oxo-1-((S)-2-oxopyrrolidin-3-yl)-4-(2,3,5,6-tetrafluorophenoxy)butan-2-yl)succinamide]		EC50 [2]: > 1 µM
CC(C)C[C@H](NC(=O)C(=O)Nc1ccccc1Br)C(=O)N[C@@H](C[C@@H]1CCNC1=O)C(=O)COc1c(F)c(F)cc(F)c1F [Compound 56, N1-(2-bromophenyl)-N2-((S)-4-methyl-1-oxo-1-(((S)-3-oxo-1-((S)-2-oxopyrrolidin-3-yl)-4-(2,3,5,6-tetrafluorophenoxy)butan-2-yl)amino)pentan-2-yl)oxalamide]	0.05 to 0.2 µM	
CC(C)C[C@H](NC(=O)C(=O)Nc1ccccc1Cc1ccccc1)C(=O)N[C@@H](C[C@@H]1CCNC1=O)C(=O)COc1c(F)c(F)cc(F)c1F [Compound 57, N1-(2-benzylphenyl)-N2-((S)-4-methyl-1-oxo-1-(((S)-3-oxo-1-((S)-2-oxopyrrolidin-3-yl)-4-(2,3,5,6-tetrafluorophenoxy)butan-2-yl)amino)pentan-2-yl)oxalamide]	0.2 to 0.5 µM	
C=CC[C@H](NC(=O)C(=O)Nc1ccccc1)C(=O)N[C@@H](C[C@@H]1CCNC1=O)C(=O)COc1c(F)c(F)cc(F)c1F [Compound 58, N1-((S)-1-oxo-1-(((S)-3-oxo-1-((S)-2-oxopyrrolidin-3-yl)-4-(2,3,5,6-tetrafluorophenoxy)butan-2-yl)amino)pent-4-en-2-yl)-N2-phenyloxalamide]	0.2 to 0.5 µM	
CC(C)C[C@H](NC(=O)C(=O)NCc1cc(Cl)ccc1Cl)C(=O)N[C@@H](C[C@@H]1CCNC1=O)C(=O)COc1c(F)c(F)cc(F)c1F [Compound 59, Nl-(2,5-dichlorobenzyl)-N2-((S)-4-methyl-1-oxo-1-(((S)-3-oxo-1-((S)-2-oxopyrrolidin-3-yl)-4-(2,3,5,6-tetrafluorophenoxy)butan-2-yl)amino)pentan-2-yl)oxalamide]	0.2 to 0.5 µM	
CC(C)C[C@H](NC(=O)/C=C/c1ccccc1F)C(=O)N[C@@H](C[C@@H]1CCNC1=O)C(=O)COc1c(F)c(F)cc(F)c1F [Compound 60, (S)-2-((E)-3-(2-fluorophenyl)acrylamido)-4-methyl-N-((S)-3-oxo-1-((S)-2-oxopyrrolidin-3-yl)-4-(2,3,5,6-tetrafluorophenoxy)butan-2-yl)pentanamide]	0.05 to 0.2 µM	
O=C(Nc1ccccc1F)C(=O)N[C@@H](CC1CCCCC1)C(=O)N[C@@H](C[C@@H]1CCNC1=O)C(=O)COc1c(F)c(F)cc(F)c1F [Compound 61, N1-((S)-3-cyclohexyl-1-oxo-1-(((S)-3-oxo-1-((S)-2-oxopyrrolidin-3-yl)-4-(2,3,5,6-tetrafluorophenoxy)butan-2-yl)amino)propan-2-yl)-N2-(2-fluorophenyl)oxalamide]	< 0.05 µM	
CC(C)C[C@H](NC(=O)C(=O)Nc1ccccc1OC(F)F)C(=O)N[C@@H](C[C@@H]1CCNC1=O)C(=O)COc1c(F)c(F)cc(F)c1F [Compound 62, N1-(2-(difluoromethoxy)-phenyl)-N2-((S)-4-methyl-1-oxo-1-(((S)-3-oxo-1-((S)-2-oxopyrrolidin-3-yl)-4-(2,3,5,6-tetrafluorophenoxy)butan-2-yl)amino)pentan-2-yl)oxalamide]	< 0.05 µM	
CCc1ccccc1NC(=O)C(=O)N[C@@H](CC(C)C)C(=O)N[C@@H](C[C@@H]1CCNC1=O)C(=O)COc1c(F)c(F)cc(F)c1F [Compound 63, N1-(2-ethylphenyl)-N2-((S)-4-methyl-1-oxo-1-(((S)-3-oxo-1-((S)-2-oxopyrrolidin-3-yl)-4-(2,3,5,6-tetrafluorophenoxy)butan-2-yl)amino)pentan-2-yl)oxalamide]	< 0.05 µM	
Cc1cccc(C)c1NC(=O)C(=O)N[C@@H](CC(C)C)C(=O)N[C@@H](C[C@@H]1CCNC1=O)C(=O)COc1c(F)c(F)cc(F)c1F [Compound 64, N1-(2,6-dimethylphenyl)-N2-((S)-4-methyl-1-oxo-1-(((S)-3-oxo-1-((S)-2-oxopyrrolidin-3-yl)-4-(2,3,5,6-tetrafluorophenoxy)butan-2-yl)amino)pentan-2-yl)oxalamide]	< 0.05 µM	
Cc1cccc(NC(=O)C(=O)N[C@@H](CC(C)C)C(=O)N[C@@H](C[C@@H]2CCNC2=O)C(=O)COc2c(F)c(F)cc(F)c2F)c1C [Compound 65, N1-(2,3-dimethylphenyl)-N2-((S)-4-methyl-1-oxo-1-(((S)-3-oxo-1-((S)-2-oxopyrrolidin-3-yl)-4-(2,3,5,6-tetrafluorophenoxy)butan-2-yl)amino)pentan-2-yl)oxalamide]	< 0.05 µM	
CC(C)C[C@H](NC(=O)/C=C/c1ccccc1)C(=O)N[C@@H](C[C@@H]1CCNC1=O)C(=O)COc1c(F)c(F)cc(F)c1F [Compound 66, (S)-2-cinnamamido-4-methyl-N-((S)-3-oxo-1-((S)-2-oxopyrrolidin-3-yl)-4-(2,3,5,6-tetrafluorophenoxy)butan-2-yl)pentanamide]	0.05 to 0.2 µM	
CC(C)C[C@H](NC(=O)c1cc(-c2ccccc2F)on1)C(=O)N[C@@H](C[C@@H]1CCNC1=O)C(=O)COc1c(F)c(F)cc(F)c1F [Compound 67, 5-(2-fluorophenyl)-N-((S)-4-methyl-1-oxo-1-(((S)-3-oxo-1-((S)-2-oxopyrrolidin-3-yl)-4-(2,3,5,6-tetrafluorophenoxy)butan-2-yl)amino)pentan-2-yl)isoxazole-3-carboxamide]	0.2 to 0.5 µM	
Cc1ccc(NC(=O)C(=O)N[C@@H](CC(C)C)C(=O)N[C@@H](C[C@@H]2CCNC2=O)C(=O)COc2c(F)c(F)cc(F)c2F)c(F)c1 [Compound 68, N1-(2-fluoro-4-methylphenyl)-N2-((S)-4-methyl-1-oxo-1-(((S)-3-oxo-1-((S)-2-oxopyrrolidin-3-yl)-4-(2,3,5,6-tetrafluorophenoxy)butan-2-yl)amino)pentan-2-yl)oxalamide]	< 0.05 µM	
CC(C)C[C@H](NC(=O)C(=O)NC1CCCCC1)C(=O)N[C@@H](C[C@@H]1CCNC1=O)C(=O)COc1c(F)c(F)cc(F)c1F [Compound 69, N1-cyclohexyl-N2-((S)-4-methyl-1-oxo-1-(((S)-3-oxo-1-((S)-2-oxopyrrolidin-3-yl)-4-(2,3,5,6-tetra-fluorophenoxy)butan-2-yl)amino)pentan-2-yl)oxalamide]	0.05 to 0.2 µM	
CC(C)C[C@H](NC(=O)c1cc(-c2ccccc2)on1)C(=O)N[C@@H](C[C@@H]1CCNC1=O)C(=O)COc1c(F)c(F)cc(F)c1F [Compound 70, N-((S)-4-methyl-1-oxo-1-(((S)-3-oxo-1-((S)-2-oxopyrrolidin-3-yl)-4-(2,3,5,6-tetrafluoro-phenoxy)butan-2-yl)amino)pentan-2-yl)-5-phenylisoxazole-3-carboxamide]	0.2 to 0.5 µM	
